Data: patent publication US20100016382A1, “PHARMACEUTICAL COMPOSITION” (TAKEDA PHARMACEUTICAL COMPANY LIMITED, priority 2006, published 2010)
Values after ≈ are worked out from the molar mass of the structure shown.

Assay: physchem
Type: physicochemical
Conditions: 20 °C, water
Procedure: Compound A is 2-ethoxy-1-{[2′-(5-oxo-4,5-dihydro-1,2,4-oxadiazol-3-yl)biphenyl-4-yl]methyl}-1H-benzimidazole-7-carboxylic acid (melting point: 191° C., solubility in water at 20° C. of about 0.006 g/L). In the following Examples and Reference Examples, the Japanese Pharmacopoeia 14th Edition or Japanese Pharmaceutical Excipients 2003 compatible products were used as the preparation additives. Of the preparation additives, while magnesium stearate is also the Japanese Pharmacopoeia 14th Edition compatible product, like other preparation additives, it particularly has a stearic acid content ratio of not less than about 90% (Taihei Chemical Industrial Co., Ltd.).

solubility: ~6 µg/mL (≈ 13.1 µM)
SMILES: CCOc1nc2cccc(C(=O)O)c2n1Cc1ccc(-c2ccccc2-c2noc(=O)[nH]2)cc1 [Compound A, 2-ethoxy-1-{[2′-(5-oxo-4,5-dihydro-1,2,4-oxadiazol-3-yl)biphenyl-4-yl]methyl}-1H-benzimidazole-7-carboxylic acid]
